# Test results taken from patent US12344615B2, “Substituted pyridines as ion channel modulators” (PRAXIS PRECISION MEDICINES, INC., priority 2019, dated 2025).
# Molecular target: T1, INaL v1.6 (late sodium current, HEK-293 cells expressing recombinant sodium channels) (Homo sapiens, UniProt Q9UQD0)
# T1 construct: expressed in transfected cells; host or cells: HEK-293
# Experiment: Inhibition of ATX-II evoked Nav late current (INaL), PatchXpress electrophysiology
# Format: cell-based
# Details: HEK293, compound at 1 μM, late current evoked by ATX-II 300 nM
# Description: Functional characterization of exemplary compounds to modulate voltage gated sodium currents was accomplished using the PatchXpress™ high throughput electrophysiology platforms (Molecular Devices, Sunnyvale, CA). HEK-293 cells expressing recombinant sodium channels were grown in DMEM/high-glucose Dulbecco's modified, 10% FBS, 2 mM sodium pyruvate, and G418. Nav channel expressing cells were grown to 50%-80% confluency and harvested by trypsinization. Trypsinized cells were washed and resuspended in extracellular buffer at a concentration of 1×10^6 cells/ml. The onboard liquid handling facility of the PatchXpress was used for dispensing cells and application of test compounds. Nav late currents were evoked by the application of ATX-II, 300 nM. Currents were evoked by depolarizing pulses to 0 mV for 200 ms from a non-inactivating holding potential (e.g., −120 mV to −150 mV) at a frequency of 0.1 Hz. Late current amplitude and stability were determined by analyzing the mean current amplitude over the 175-195 msec region of the 200 msec test pulse. Following steady state block with exemplary compounds (e.g., as described herein) at 1 μM, a Na^+ free solution containing an impermeant cation (e.g., Choline or NDMG) was added for determination of the 0 current level. Late current amplitudes for each test condition were determined from the mean of the 175-195 msec region of the 200 msec test pulse. Percent inhibition of steady state currents was calculated as (compound−baseline)/(control−baseline)*100, where control represents INaL recorded in the absence of compound.
# T1 sequence (Q9UQD0 whole entry): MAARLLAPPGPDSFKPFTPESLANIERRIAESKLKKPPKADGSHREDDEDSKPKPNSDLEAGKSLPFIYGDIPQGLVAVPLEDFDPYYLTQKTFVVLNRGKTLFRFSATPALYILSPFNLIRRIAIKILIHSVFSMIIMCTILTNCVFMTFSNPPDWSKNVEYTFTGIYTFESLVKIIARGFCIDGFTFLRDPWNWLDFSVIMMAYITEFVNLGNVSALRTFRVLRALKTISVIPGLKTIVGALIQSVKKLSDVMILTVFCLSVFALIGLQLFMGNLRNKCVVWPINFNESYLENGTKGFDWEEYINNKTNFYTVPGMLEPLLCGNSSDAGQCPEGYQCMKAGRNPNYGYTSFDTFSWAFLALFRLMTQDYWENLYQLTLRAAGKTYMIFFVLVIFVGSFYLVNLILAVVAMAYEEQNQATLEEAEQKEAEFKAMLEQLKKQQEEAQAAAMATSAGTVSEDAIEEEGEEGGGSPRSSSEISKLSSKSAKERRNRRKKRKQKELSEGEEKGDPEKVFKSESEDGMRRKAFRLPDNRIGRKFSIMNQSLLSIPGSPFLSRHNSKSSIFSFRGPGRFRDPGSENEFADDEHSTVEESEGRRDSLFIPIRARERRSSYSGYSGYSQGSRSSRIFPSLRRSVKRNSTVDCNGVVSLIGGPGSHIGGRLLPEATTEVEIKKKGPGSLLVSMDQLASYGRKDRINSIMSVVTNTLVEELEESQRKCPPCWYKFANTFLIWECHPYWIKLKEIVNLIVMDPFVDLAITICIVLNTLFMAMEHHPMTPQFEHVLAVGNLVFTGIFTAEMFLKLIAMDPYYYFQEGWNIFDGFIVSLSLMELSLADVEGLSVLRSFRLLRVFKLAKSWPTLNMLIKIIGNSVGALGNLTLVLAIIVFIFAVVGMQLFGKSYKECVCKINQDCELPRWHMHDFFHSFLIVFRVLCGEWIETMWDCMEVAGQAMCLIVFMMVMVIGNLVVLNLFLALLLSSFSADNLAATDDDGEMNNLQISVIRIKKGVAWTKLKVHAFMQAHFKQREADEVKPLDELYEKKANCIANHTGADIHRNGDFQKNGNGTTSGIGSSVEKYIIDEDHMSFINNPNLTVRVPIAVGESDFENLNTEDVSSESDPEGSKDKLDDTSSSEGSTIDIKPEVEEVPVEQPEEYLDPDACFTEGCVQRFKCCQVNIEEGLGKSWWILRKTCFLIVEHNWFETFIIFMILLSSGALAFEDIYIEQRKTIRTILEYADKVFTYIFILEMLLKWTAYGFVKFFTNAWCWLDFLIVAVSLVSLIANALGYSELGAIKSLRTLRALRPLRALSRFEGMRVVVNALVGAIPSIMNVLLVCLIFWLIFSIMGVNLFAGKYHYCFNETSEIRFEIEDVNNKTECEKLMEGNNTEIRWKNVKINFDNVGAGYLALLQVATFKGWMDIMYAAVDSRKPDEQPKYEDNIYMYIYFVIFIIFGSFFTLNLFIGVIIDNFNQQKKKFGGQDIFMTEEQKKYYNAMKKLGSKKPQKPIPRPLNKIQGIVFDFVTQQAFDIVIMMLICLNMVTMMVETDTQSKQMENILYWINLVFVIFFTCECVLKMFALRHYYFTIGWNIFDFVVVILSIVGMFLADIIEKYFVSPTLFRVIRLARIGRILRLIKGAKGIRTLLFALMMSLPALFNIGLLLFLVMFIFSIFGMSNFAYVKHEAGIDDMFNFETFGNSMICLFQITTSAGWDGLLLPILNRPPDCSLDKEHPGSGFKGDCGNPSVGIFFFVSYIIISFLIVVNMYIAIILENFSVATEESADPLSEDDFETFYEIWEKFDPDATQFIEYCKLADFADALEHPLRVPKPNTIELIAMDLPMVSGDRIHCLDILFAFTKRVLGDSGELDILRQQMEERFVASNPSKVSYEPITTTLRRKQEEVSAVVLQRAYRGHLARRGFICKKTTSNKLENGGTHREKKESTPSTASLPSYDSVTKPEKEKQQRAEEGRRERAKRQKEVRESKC
row,inhibition at 1 µM [%],SMILES
1,< 50,"C[C@@H](Oc1ncc(-c2cn3c(C4CC4(F)F)nnc3cn2)cc1F)C(F)(F)F (single isomer, unassigned) [16 (Isomer 1)]"
2,> 75,"CC(C)(Oc1ncc(-c2cn3c(C(F)F)nnc3cn2)cc1F)C(F)(F)F [Compound 1, 3-(difluoromethyl)-6-[5-fluoro-6-(2,2,2-trifluoro-1,1-dimethyl-ethoxy)-3-pyridyl]-[1,2,4]triazolo[4,3-a]pyrazine]"
3,> 75,"Cc1cc2nnc(C(F)(F)F)n2nc1-c1cnc(O[C@@H](C)C(F)(F)F)c(F)c1 [Compound 44, (S)-6-(5-fluoro-6-((1,1,1-trifluoropropan-2-yl)oxy)pyridin-3-yl)-7-methyl-3-(trifluoromethyl)-[1,2,4]triazolo[4,3-b]pyridazine]"
4,50 to 75,"Fc1cc(-c2ccc3nnc(C(F)(F)F)n3n2)cnc1OCC1CC1(F)F (single isomer, unassigned) [23 (Isomer 1)]"
5,50 to 75,"CC(C)(Oc1ncc(-c2cn3c(C4CC4(F)F)nnc3cn2)cc1F)C(F)(F)F (stereo not drawn) [Compound 10, 3-(2,2-difluorocyclopropyl)-6-[5-fluoro-6-(2,2,2-trifluoro-1,1-dimethyl-ethoxy)-3-pyridyl]-[1,2,4]triazolo[4,3-a]pyrazine]"
6,> 75,"CC(C)(Oc1ncc(-c2ccc3nnc(C4CC4(F)F)n3n2)cc1F)C(F)(F)F (stereo not drawn) [Compound 12, 3-(2,2-difluorocyclopropyl)-6-[5-fluoro-6-(2,2,2-trifluoro-1,1-dimethyl-ethoxy)-3-pyridyl]-[1,2,4]triazolo[4,3-b]pyridazine]"
7,50 to 75,"C[C@H](Oc1ncc(-c2nn3c(C(F)(F)F)nnc3cc2Cl)cc1F)C(F)(F)F [Compound 43, 7-chloro-6-[5-fluoro-6-[(1S)-2,2,2-trifluoro-1-methyl-ethoxy]-3-pyridyl]-3-(trifluoromethyl)-[1,2,4]triazolo[4,3-b]pyridazine]"
8,50 to 75,"Cc1c(-c2cnc(O[C@@H](C)C(F)(F)F)c(F)c2)ncc2nnc(C(F)(F)F)n12 [Compound 38, 6-[5-fluoro-6-[(1S)-2,2,2-trifluoro-1-methyl-ethoxy]-3-pyridyl]-5-methyl-3-(trifluoromethyl)-[1,2,4]triazolo[4,3-a]pyrazine]"
9,< 50,"C[C@H](Oc1ncc(-c2cn3c(C4CC4(F)F)nnc3cn2)cc1F)C(F)(F)F (single isomer, unassigned) [18 (Isomer 1)]"
10,< 50,"C[C@@H](Oc1ncc(-c2cn3c(C4CC(F)(F)C4)nnc3cn2)cc1F)C(F)(F)F [Compound 20, 3-(3,3-difluorocyclobutyl)-6-[5-fluoro-6-[(1R)-2,2,2-trifluoro-1-methyl-ethoxy]-3-pyridyl]-[1,2,4]triazolo[4,3-a]pyrazine]"
11,< 50,"CC(C)(Oc1ncc(-c2cn3c(C4CC4(F)F)nnc3cn2)cc1F)C(F)(F)F (single isomer, unassigned) [13 (Isomer 1)]"
12,> 75,"Fc1cc(-c2cn3c(C(F)(F)F)nnc3cn2)cnc1OC1CC(F)(F)C1(F)F (single isomer, unassigned) [32 (Isomer 1)]"
13,50 to 75,"Fc1cc(-c2ccc3nnc(C(F)F)n3n2)cnc1OCC1CC1(F)F (single isomer, unassigned) [21 (Isomer 1)]"
14,< 50,"Fc1cc(-c2ccc3nnc(C(F)F)n3n2)cnc1OCC1CC1(F)F (stereo not drawn) [Compound 22, 6-[6-[(2,2-difluorocyclopropyl)methoxy]-5-fluoro-3-pyridyl]-3-(difluoromethyl)-[1,2,4]triazolo[4,3-b]pyridazine]"
15,50 to 75,"C[C@@H](Oc1ccc(-c2nn3c(C(F)(F)F)nnc3cc2Cl)cn1)C(F)(F)F [Compound 47, (R)-7-chloro-3-(trifluoromethyl)-6-(6-((1,1,1-trifluoropropan-2-yl)oxy)pyridin-3-yl)-[1,2,4]triazolo[4,3-b]pyridazine]"
16,50 to 75,"C[C@H](Oc1ncc(-c2cn3c(C4CC(F)(F)C4)nnc3cn2)cc1F)C(F)(F)F [Compound 19, 3-(3,3-difluorocyclobutyl)-6-[5-fluoro-6-[(1S)-2,2,2-trifluoro-1-methyl-ethoxy]-3-pyridyl]-[1,2,4]triazolo[4,3-a]pyrazine]"

row,SMILES,inhibition at 1 µM [%]
1,"Fc1cc(-c2cn3c(C(F)(F)F)nnc3cn2)cnc1OC1CC(F)(F)C1(F)F (stereo not drawn) [Compound 33, 6-[5-fluoro-6-(2,2,3,3-tetrafluorocyclobutoxy)-3-pyridyl]-3-(trifluoromethyl)-[1,2,4]triazolo[4,3-a]pyrazine]",> 75

# Same assay, conditions: compound at 1 μM, late current evoked by ATX-II 300 nM
row,INaL v1.6 % Inhibition,SMILES
1,A (inhibition of less than 50%),"Fc1cc(-c2ccc3nnc(C(F)F)n3n2)cnc1OCC1CC1(F)F (single isomer, unassigned) [21 (Isomer 2)]"
